# Laboratory results taken from ChEMBL document CHEMBL5356989, “Impact of multiple H/D replacements on the physicochemical properties of flurbiprofen” (RSC Med Chem, 2023).
# Legend:
# [1] = Volume of distribution at steady state in Sprague Dawley rat at 1 mg/kg, iv measured for 8 hrs by HPLC analysis; type: ADME, organism-based; conditions: in vivo, read-out: Vdss
# [2] = AUC (0 to 8 hrs) in fasted Sprague Dawley rat at 10 mg/kg, po measured for 8 hrs by HPLC analysis; type: ADME, organism-based; design: dose 10 mg/kg, time 8 hrs, route po; conditions: in vivo
# [3] = Half life in Sprague Dawley rat at 1 mg/kg, iv measured for 8 hrs by HPLC analysis; type: ADME, organism-based; conditions: in vivo
# [4] = Solubility in distilled water at 1 mg measured for 28 hrs by HPLC analysis; type: physicochemical
# [5] = Cmax in fasted Sprague Dawley rat at 10 mg/kg, po measured for 8 hrs by HPLC analysis; type: ADME, organism-based; design: dose 10 mg/kg, time 8 hrs, route po; conditions: in vivo
# [6] = Solubility in PBS at pH 6.0 at 1 mg measured for 28 hrs by HPLC analysis; type: physicochemical; conditions: PBS pH 6.0, pH 6
# [7] = Oral bioavailability in fasted Sprague Dawley rat at 10 mg/kg measured for 8 hrs by HPLC analysis; type: ADME, organism-based; conditions: in vivo
# [8] = Apparent permeability of compound by PAMPA assay; type: ADME
# [9] = AUC (0 to 8 hrs) in Sprague Dawley rat at 1 mg/kg, iv measured for 8 hrs by HPLC analysis; type: ADME, organism-based; design: dose 1 mg/kg, time 8 hrs, route iv; conditions: in vivo
# [10] = Tmax in fasted Sprague Dawley rat at 10 mg/kg, po measured for 8 hrs by HPLC analysis; type: ADME, organism-based; conditions: in vivo
# Cytochrome P450 2C9 [11] = biological target: T1, Cytochrome P450 2C9 (Homo sapiens, UniProt P11712); experiment: Drug metabolism assessed as recombinant CYP2C9 (unknown origin)-mediated 4'-hydroxyl FP-d7 metabolite formation by measuring Vmax per nmol of CYP at 1 to 5 uM incubated for 10 mins in presence of NADPH by LC-MS analysis; type: ADME; conditions: recombinant enzyme, dose 1-5 µM
# T1 sequence (P11712 whole entry): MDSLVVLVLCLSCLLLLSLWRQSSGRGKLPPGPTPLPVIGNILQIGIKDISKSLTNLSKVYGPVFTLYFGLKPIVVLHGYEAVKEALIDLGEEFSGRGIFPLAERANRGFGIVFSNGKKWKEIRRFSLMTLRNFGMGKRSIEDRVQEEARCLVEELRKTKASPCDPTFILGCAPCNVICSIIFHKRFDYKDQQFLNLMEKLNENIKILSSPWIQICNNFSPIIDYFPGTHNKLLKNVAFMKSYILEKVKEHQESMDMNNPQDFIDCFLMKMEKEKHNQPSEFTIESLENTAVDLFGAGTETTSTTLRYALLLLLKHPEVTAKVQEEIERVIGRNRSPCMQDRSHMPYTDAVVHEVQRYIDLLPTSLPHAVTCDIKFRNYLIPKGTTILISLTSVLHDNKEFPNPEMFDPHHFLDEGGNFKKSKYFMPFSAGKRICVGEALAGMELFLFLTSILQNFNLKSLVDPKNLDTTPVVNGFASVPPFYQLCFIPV
# [12] = Permeability of compound assessed as drug flux measured for 2 to 6 hrs by PAMPA assay; type: ADME; conditions: time 2-6 hrs
# [13] = Lipophilicity, log D of compound in n-octanol/PBS at pH 7.4 at 10 mg measured for 48 hrs by HPLC analysis; type: physicochemical
# [14] = Solubility in HCl at pH 1.2 at 1 mg measured for 28 hrs by HPLC analysis; type: physicochemical; conditions: HCl pH 1.2, pH 1.2
# Cytochrome P450 2C9 [15] = biological target: T1, Cytochrome P450 2C9; experiment: Drug metabolism assessed as recombinant CYP2C9 (unknown origin)-mediated 4'-hydroxyl FP-d7 metabolite formation by measuring Vmax/Km per nmol of CYP at 1 to 5 uM incubated for 10 mins in presence of NADPH by LC-MS analysis; type: ADME; conditions: recombinant enzyme, dose 1-5 µM
# Cytochrome P450 2C9 [16] = biological target: T1, Cytochrome P450 2C9; experiment: Drug metabolism assessed as recombinant CYP2C9 (unknown origin)-mediated 4'-hydroxyl FP-d7 metabolite formation at 1 to 5 uM incubated for 10 mins in presence of NADPH by LC-MS analysis; type: ADME; conditions: recombinant enzyme, dose 1-5 µM
# [17] = Clearance in Sprague Dawley rat at 1 mg/kg, iv measured for 8 hrs by HPLC analysis; type: ADME, organism-based; conditions: in vivo
# Cytochrome P450 2C9 [18] = biological target: T1, Cytochrome P450 2C9; experiment: Drug metabolism assessed as recombinant CYP2C9 (unknown origin)-mediated 4'-hydroxy FP metabolite formation at 1 to 5 uM incubated for 10 mins in presence of NADPH by LC-MS analysis; type: ADME; conditions: recombinant enzyme, dose 1-5 µM
smiles,measurement,setting,value
[2H]c1c([2H])c([2H])c(-c2c([2H])c([2H])c(C(C)C(=O)O)c([2H])c2F)c([2H])c1[2H] (configuration not stated),Vd,[1],0.0207 L/kg
same,AUC(0-t) at 8 h,[2],144000 ng·h/mL
same,half-life,[3],33 min
same,solubility at 28 h,[4],32.7 µg/mL
same,Cmax,[5],33000 ng/mL
same,solubility at 28 h,[6],918 µg/mL
same,bioavailability,[7],75.3%
same,Papp,[8],5.32 ×10⁻⁶ cm/s
same,AUC(0-t) at 8 h,[9],19200 ng·h/mL
same,Tmax,[10],60 min
same,Vmax,Cytochrome P450 2C9 [11],0.91 pmol/min
same,Drug transport,[12],4.6 µg/h
same,logD at 48 h,[13],0.87
same,solubility at 28 h,[14],12.7 µg/mL
same,Vmax/Km,Cytochrome P450 2C9 [15],1.24 µL/min
same,Drug metabolism,Cytochrome P450 2C9 [16],Metabolite_Detected
same,clearance,[17],0.217 mL/min/kg
CC(C(=O)O)c1ccc(-c2ccccc2)c(F)c1 (configuration not stated) [FLURBIPROFEN],Vd,[1],0.0204 L/kg
same,AUC(0-t) at 8 h,[2],130000 ng·h/mL
same,half-life,[3],34.2 min
same,solubility at 28 h,[4],24.1 µg/mL
same,Cmax,[5],29600 ng/mL
same,solubility at 28 h,[6],810 µg/mL
same,bioavailability,[7],66.9%
same,Papp,[8],5.24 ×10⁻⁶ cm/s
same,AUC(0-t) at 8 h,[9],19500 ng·h/mL
same,Drug metabolism,Cytochrome P450 2C9 [18],Metabolite_Detected
same,Tmax,[10],30 min
same,Drug transport,[12],4.53 µg/h
same,logD at 48 h,[13],0.9
same,solubility at 28 h,[14],5.9 µg/mL
same,clearance,[17],0.216 mL/min/kg
